Results: patent publication US20250179059A1 (The Regents of the University of California, priority 2021, published 2025)

Target: T1, human BRD4 bromodomain II (Homo sapiens, UniProt O60885)
T1 construct: human BRD4 bromodomain II [based on Genbank NM_058243, residues 349-460]; host or cells: E. coli
Test: Bromodomain binding assay (AlphaScreen), BRD4 BDII
Conditions: AlphaScreen assay, Table C2; read-out: BRD4 BDII IC50
Description: Bromodomain Binding Assay
The bromodomain binding assay utilizes AlphaScreen technology. Compounds compete with a biotinylated peptide ligand (from histone H4: aa 1-21, K5/K8/K12/K16Ac-biotin) for binding to a hexahistidine (His6)-tagged bromodomain. Peptide binding is detected by fluorescence signal after singlet oxygen energy transfer from peptide-bound AlphaScreen streptavidin-coated donor beads to His6-tagged bromodomain-bound nickel-chelate acceptor beads (PerkinElmer). Briefly, 8 μL 2.5× bromodomain (E. coli expressed, N-terminal His6-tagged human BRD4 bromodomain II [based on Genbank NM_058243, residues 349-460] or N-terminal His6-tagged human BRD4 bromodomain I [residues 44-170]) in reaction buffer (50 mM HEPES [pH 7.5], 100 mM NaCl, 0.05% CHAPS, 0.1% BSA, 1% DMSO) is added to wells of an assay plate (384-well low flange white, flat bottom, polystyrene microplate, Corning #3572; buffer only is added to some wells as a negative control). A compound concentration series (10 concentrations, 3-fold serial dilutions previously prepared in 100% DMSO, or 100% DMSO only negative control) is delivered to the assay plate with an Echo 550 acoustic liquid handler (Labcyte), followed by plate centrifugation and incubation for 30 minutes at room temperature. Then 4 μL 5× biotinylated peptide ligand is added, followed by plate centrifugation and gentle shaking for 30 minutes at room temperature to mix. After this incubation, 4 μL 5× donor beads are added, and the plate is centrifuged, followed by brief gentle shaking to mix. Finally, 4 μL 5× acceptor beads are added, and the plate is centrifuged, followed by gentle shaking for 60 minutes at room temperature in the dark. AlphaScreen signal (excitation/emission: 680 nm/520-620 nm) is detected with an EnSpire multimode plate reader (PerkinElmer). Percentage peptide binding is plotted as a function of concentration, and curve fitting is used to determine competitive compound binding ICsos.

Compound	IC50
CC(=O)N1CCC(=O)Nc2cc(-c3cccc(-c4cc(N5CCNCC5)no4)c3O)ccc21 [Example 29, 5-Acetyl-8-(2-hydroxy-3-(3-(piperazin-1-yl)isoxazol-5-yl)phenyl)-4,5-dihydro-1H-benzo[b][1,4]diazepin-2(3H)-one 2,2,2-trifluoroacetate]	> 100 nM
CC(=O)Nc1ccc(-c2cc(F)cc(-c3cnn(C4CCN(C)CC4)c3)c2O)cc1 [Example 134, N-(5′-fluoro-2′-hydroxy-3′-(1-(1-methylpiperidin-4-yl)-1H-pyrazol-4-yl)-[1,1′-biphenyl]-4-yl)acetamide]	> 100 nM
CC(=O)Nc1ccc(-c2cccc(-c3ccnc(N4CCNCC4)c3)c2C(F)F)cc1F [Example 250, N-(2′-(difluoromethyl)-3-fluoro-3′-(2-(piperazin-1-yl)pyridin-4-yl)-[1,1′-biphenyl]-4-yl)acetamide]	> 100 nM
CC(=O)N1CCc2cc(-c3cccc(-c4cc(N5CCNCC5)no4)c3O)ccc21 [Example 31, 1-(5-(2-Hydroxy-3-(3-(piperazin-1-yl)isoxazol-5-yl)phenyl)indolin-1-yl)ethanone 2,2,2-trifluoroacetate]	> 100 nM
CC(=O)Nc1ccc(-c2cccc(-c3cccc(Cl)c3)c2O)cc1F [Example 77, N-(3″-Chloro-3-fluoro-2′-hydroxy-[1,1′:3′,1″-terphenyl]-4-yl)acetamide]	> 100 nM
CC(=O)Nc1ccc(-c2cccc(-c3ccc(Cl)cc3)c2O)cc1F [Example 81, N-(4″-Chloro-3-fluoro-2′-hydroxy-[1,1′:3′,1″-terphenyl]-4-yl)acetamide]	> 100 nM
CC(=O)Nc1ccc(-c2cccc(-c3cccc(-c4cn[nH]c4)c3)c2O)cc1F [Example 246, N-(3-fluoro-2′-hydroxy-3″-(1H-pyrazol-4-yl)-[1,1′:3′,1″-terphenyl]-4-yl)acetamide]	> 100 nM
CC(=O)Nc1ccc(-c2cccc(-c3cc(N4CCNCC4)n(C)n3)c2O)cc1F [Example 160, N-(3-fluoro-2′-hydroxy-3′-(1-methyl-5-(piperazin-1-yl)-1H-pyrazol-3-yl)-[1,1′-biphenyl]-4-yl)acetamide]	> 100 nM
CC(=O)N1CCCc2cc(-c3cccc(-c4cc(N5CCNCC5)no4)c3O)ccc21 [Example 36, 1-(6-(2-Hydroxy-3-(3-(piperazin-1-yl)isoxazol-5-yl)phenyl)-3,4-dihydroquinolin-1(2H)-yl)ethanone 2,2,2-trifluoroacetate]	> 100 nM
CC(=O)Nc1ccc(-c2cccc(-c3cc(N4CCNCC4)no3)c2O)cc1Cl [Example 32, N-(3-Chloro-2′-hydroxy-3′-(3-(piperazin-1-yl)isoxazol-5-yl)-[1,1'-biphenyl]-4-yl)acetamide 2,2,2-trifluoroacetate]	10 to 100 nM
O=C1NCCN1c1ccc(-c2cccc(-c3ccnc(N4CCNCC4)c3)c2O)cc1Cl [Example 228, 1-(3-chloro-2′-hydroxy-3′-(2-(piperazin-1-yl)pyridin-4-yl)-[1,1′-biphenyl]-4-yl)imidazolidin-2-one]	1 to 10 nM
COc1ccc(-c2cccc(-c3ccc(NC(C)=O)c(F)c3)c2O)cn1 [Example 98, N-(3-Fluoro-2′-hydroxy-3′-(6-methoxypyridin-3-yl)-[1,1′-biphenyl]-4-yl)acetamide]	10 to 100 nM
CC(=O)Nc1ccc(-c2cccc(-c3cccc(-c4c[nH]cn4)c3)c2O)cc1F [Example 229, N-(3-fluoro-2′-hydroxy-3″-(1H-imidazol-4-yl)-[1,1′:3′,1″-terphenyl]-4-yl)acetamide]	10 to 100 nM
CC(=O)Nc1ccc(-c2cccc(-c3cccc(-c4cn[nH]n4)c3)c2O)cc1F [Example 243, N-(3-fluoro-2′-hydroxy-3″-(2H-1,2,3-triazol-4-yl)-[1,1′:3′,1″-terphenyl]-4-yl)acetamide]	> 100 nM
CC(=O)Nc1ccc(-c2cccc(-c3ccc(C(C)C)cc3)c2O)cc1F [Example 74, N-(3-Fluoro-2′-hydroxy-4″-isopropyl-[1,1′:3′,1″-terphenyl]-4-yl)acetamide]	> 100 nM
CC(=O)Nc1ccc(-c2cccc(-c3cccc(N4CCNCC4=O)c3)c2O)cc1F [Example 191, N-(3-fluoro-2′-hydroxy-3″-(2-oxopiperazin-1-yl)-[1,1′:3′,1″-terphenyl]-4-yl)acetamide]	> 100 nM
O=C1CCCN1c1c(F)cc(-c2cccc(-c3ccncc3)c2O)cc1F [Example 207, 1-(3,5-difluoro-2′-hydroxy-3′-(pyridin-4-yl)-[1,1′-biphenyl]-4-yl)pyrrolidin-2-one]	> 100 nM
CC(=O)Nc1ccc(-c2cccc(-c3ccc4ncccc4c3)c2O)cc1F [Example 120, N-(3-Fluoro-2′-hydroxy-3′-(quinolin-6-yl)-[1,1′-biphenyl]-4-yl)acetamide]	10 to 100 nM
CCOc1ccc(-c2cccc(-c3ccc(NC(C)=O)c(F)c3)c2O)cc1 [Example 71, N-(4″-ethoxy-3-fluoro-2′-hydroxy-[1,1′:3′,1″-terphenyl]-4-yl)acetamide]	> 100 nM
CC(=O)Nc1ccc(-c2cccc(-c3ccc(NC(C)=O)c(C(C)C)c3)c2O)cc1F [Example 96, N,N′-(3-Fluoro-2′-hydroxy-3″-isopropyl-[1,1′:3′,1″-terphenyl]-4,4″diyl)diacetamide]	> 100 nM
CC(=O)Nc1ccc(-c2cccc(-c3cccnc3)c2O)cc1F [Example 63, N-(3-Fluoro-2′-hydroxy-3′-(pyridin-3-yl)-[1,1′-biphenyl]-4-yl)acetamide]	10 to 100 nM
O=C1CCCN1c1ccc(-c2cccc(-c3ccncc3)c2O)cc1F [Example 190, 1-(3-fluoro-2′-hydroxy-3′-(pyridin-4-yl)-[1,1′-biphenyl]-4-yl)pyrrolidin-2-one]	10 to 100 nM
O=C(Nc1ccc(-c2cccc(-c3cc(N4CCNCC4)no3)c2O)cc1)C(F)F [Example 48, 2,2-Difluoro-N-(2′-hydroxy-3′-(3-(piperazin-1-yl)isoxazol-5-yl)-[1,1′-biphenyl]-4-yl)acetamide 2,2,2-trifluoroacetate]	> 100 nM
CC(=O)Nc1c(F)cc(-c2cccc(-c3cccc(N4CCNCC4)c3)c2O)cc1OC1CCC1 [Example 167, N-(3-cyclobutoxy-5-fluoro-2′-hydroxy-3″-(piperazin-1-yl)-[1,1′:3′,1″-terphenyl]-4-yl)acetamide]	1 to 10 nM
CCc1cccc(-c2cccc(-c3ccc(NC(C)=O)c(F)c3)c2O)c1 [Example 79, N-(3″-Ethyl-3-fluoro-2′-hydroxy-[1,1′:3′,1″-terphenyl]-4-yl)acetamide]	> 100 nM
CC(=O)Nc1ccc(-c2cccc(-c3cc(N4CCNCC4)no3)c2O)c(F)c1 [Example 30, N-(2-Fluoro-2′-hydroxy-3′-(3-(piperazin-1-yl)isoxazol-5-yl)-[1,1′-biphenyl]-4-yl)acetamide 2,2,2-trifluoroacetate]	> 100 nM
COC(=O)c1cc(-c2cccc(-c3ccc(NC(C)=O)c(F)c3)c2O)ccn1 [Example 201, Methyl 4-(4′-acetamido-3′-fluoro-2-hydroxy-[1,1′-biphenyl]-3-yl)picolinate]	10 to 100 nM
CC(=O)Nc1ccc(-c2cccc(-c3cc(N4CCN(C(C)C)CC4)no3)c2O)cc1F [Example 152, N-(3-fluoro-2′-hydroxy-3′-(3-(4-isopropylpiperazin-1-yl)isoxazol-5-yl)-[1,1′-biphenyl]-4-yl)acetamide 2,2,2-trifluoroacetate]	10 to 100 nM
